Experimental data as given in the kinase profiling compilation of Christmann-Franck et al. (2016).

What was measured:
Experiment in all cases: KINOMEscan competition binding
Conditions in all cases: compound 10.0 µM
AAK1 (human) = AAK1 (human) (UniProt Q2M2I8)
ACVR1 (human) = ACVR1 (human) (UniProt Q04771)
AKT2 (human) = AKT2 (human) (UniProt P31751)
AKT3 (human) = AKT3 (human) (UniProt Q9Y243)
AURKC (human) = AURKC (human) (UniProt Q9UQB9)
BMPR1B (human) = BMPR1B (human) (UniProt O00238)
CAMK2A (human) = CAMK2A (human) (UniProt Q9UQM7)
CAMKK2 (human) = CAMKK2 (human) (UniProt Q96RR4)
CDK15 (human) = CDK15 (human) (UniProt Q96Q40)
CDK19 (human) = CDK19 (human) (UniProt Q9BWU1)
CLK2 (human) = CLK2 (human) (UniProt P49760)
CSNK1G2 (human) = CSNK1G2 (human) (UniProt P78368)
EPHA6 (human) = EPHA6 (human) (UniProt Q9UF33)
EPHB4 (human) = EPHB4 (human) (UniProt P54760)
FES (human) = FES (human) (UniProt P07332)
FGFR4 (human) = FGFR4 (human) (UniProt P22455)
GSK3A (human) = GSK3A (human) (UniProt P49840)
IKBKB (human) = IKBKB (human) (UniProt O14920)
LCK (human) = LCK (human) (UniProt P06239)
MAP3K7 (human) = MAP3K7 (human) (UniProt O43318)
MAP3K9 (human) = MAP3K9 (human) (UniProt P80192)
MAPK10 (human) = MAPK10 (human) (UniProt P53779)
MERTK (human) = MERTK (human) (UniProt Q12866)
MYLK4 (human) = MYLK4 (human) (UniProt Q86YV6)
MYO3A (human) = MYO3A (human) (UniProt Q8NEV4)
NEK2 (human) = NEK2 (human) (UniProt P51955)
NLK (human) = NLK (human) (UniProt Q9UBE8)
NUAK2 (human) = NUAK2 (human) (UniProt Q9H093)
PIM3 (human) = PIM3 (human) (UniProt Q86V86)
PIP5K1A (human) = PIP5K1A (human) (UniProt Q99755)
PKMYT1 (human) = PKMYT1 (human) (UniProt Q99640)
PTK2 (human) = PTK2 (human) (UniProt Q05397)
RPS6KA2 KD1 (human) = RPS6KA2 KD1 (human) (UniProt Q15349)
SIK1 (human) = SIK1 (human) (UniProt P57059)
STK24 (human) = STK24 (human) (UniProt Q9Y6E0)
STK32C (human) = STK32C (human) (UniProt Q86UX6)
STK35 (human) = STK35 (human) (UniProt Q8TDR2)
STK4 (human) = STK4 (human) (UniProt Q13043)
TAOK3 (human) = TAOK3 (human) (UniProt Q9H2K8)
TGFBR1 (human) = TGFBR1 (human) (UniProt P36897)
Chain of TGFBR1 (human) (P36897 whole entry, looked up): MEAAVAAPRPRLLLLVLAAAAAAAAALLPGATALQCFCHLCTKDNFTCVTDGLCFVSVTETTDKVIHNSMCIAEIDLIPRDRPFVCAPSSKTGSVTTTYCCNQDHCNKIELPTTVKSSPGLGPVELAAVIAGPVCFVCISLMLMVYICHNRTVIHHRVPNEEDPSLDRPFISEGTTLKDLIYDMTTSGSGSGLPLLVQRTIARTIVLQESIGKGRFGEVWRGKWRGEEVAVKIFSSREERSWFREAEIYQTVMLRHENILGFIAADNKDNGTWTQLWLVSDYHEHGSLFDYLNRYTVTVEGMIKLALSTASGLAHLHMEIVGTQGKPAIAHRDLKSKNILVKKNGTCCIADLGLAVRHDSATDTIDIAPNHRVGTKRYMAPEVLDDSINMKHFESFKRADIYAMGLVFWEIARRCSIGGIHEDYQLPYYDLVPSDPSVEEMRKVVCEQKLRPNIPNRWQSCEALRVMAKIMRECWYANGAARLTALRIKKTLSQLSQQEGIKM

Chain of MERTK (human) (Q12866 whole entry, looked up): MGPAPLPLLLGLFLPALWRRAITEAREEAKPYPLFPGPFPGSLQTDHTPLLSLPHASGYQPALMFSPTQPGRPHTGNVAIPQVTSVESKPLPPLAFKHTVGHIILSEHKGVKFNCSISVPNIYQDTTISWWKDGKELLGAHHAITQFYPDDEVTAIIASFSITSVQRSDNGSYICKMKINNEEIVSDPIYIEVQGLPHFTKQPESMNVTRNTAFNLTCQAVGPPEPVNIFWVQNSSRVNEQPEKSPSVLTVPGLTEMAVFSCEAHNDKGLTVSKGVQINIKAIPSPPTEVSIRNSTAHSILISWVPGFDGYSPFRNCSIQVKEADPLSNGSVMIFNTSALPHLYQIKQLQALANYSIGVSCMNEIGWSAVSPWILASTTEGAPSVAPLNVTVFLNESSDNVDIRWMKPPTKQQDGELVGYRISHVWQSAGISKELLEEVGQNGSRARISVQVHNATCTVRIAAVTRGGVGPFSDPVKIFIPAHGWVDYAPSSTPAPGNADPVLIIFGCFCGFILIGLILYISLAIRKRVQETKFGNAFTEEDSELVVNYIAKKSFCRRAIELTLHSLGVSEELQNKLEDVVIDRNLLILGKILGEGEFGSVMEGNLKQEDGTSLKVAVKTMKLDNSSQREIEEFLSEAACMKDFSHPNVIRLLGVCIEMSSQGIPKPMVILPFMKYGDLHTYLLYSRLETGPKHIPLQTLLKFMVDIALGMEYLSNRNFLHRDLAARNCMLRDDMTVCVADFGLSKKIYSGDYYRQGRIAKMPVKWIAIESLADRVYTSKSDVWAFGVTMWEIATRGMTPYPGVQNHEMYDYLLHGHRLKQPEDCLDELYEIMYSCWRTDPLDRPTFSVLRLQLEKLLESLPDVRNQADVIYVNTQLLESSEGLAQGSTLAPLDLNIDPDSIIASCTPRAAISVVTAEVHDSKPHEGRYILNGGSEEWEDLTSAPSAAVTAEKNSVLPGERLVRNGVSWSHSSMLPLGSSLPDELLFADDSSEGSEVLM
Chain of ACVR1 (human) (Q04771 whole entry, looked up): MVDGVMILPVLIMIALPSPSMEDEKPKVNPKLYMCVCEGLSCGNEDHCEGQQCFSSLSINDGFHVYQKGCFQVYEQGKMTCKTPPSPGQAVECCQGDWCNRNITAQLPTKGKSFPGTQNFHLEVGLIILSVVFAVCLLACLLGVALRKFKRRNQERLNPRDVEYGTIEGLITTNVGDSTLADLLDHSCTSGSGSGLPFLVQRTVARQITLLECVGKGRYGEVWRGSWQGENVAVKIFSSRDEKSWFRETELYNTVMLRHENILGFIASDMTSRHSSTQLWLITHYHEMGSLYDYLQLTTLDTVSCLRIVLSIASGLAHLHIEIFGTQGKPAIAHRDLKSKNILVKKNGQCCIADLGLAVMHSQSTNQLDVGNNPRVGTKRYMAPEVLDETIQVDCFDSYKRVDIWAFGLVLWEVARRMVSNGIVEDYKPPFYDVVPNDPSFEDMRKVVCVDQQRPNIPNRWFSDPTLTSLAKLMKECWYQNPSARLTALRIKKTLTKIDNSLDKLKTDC
Chain of CDK15 (human) (Q96Q40 whole entry, looked up): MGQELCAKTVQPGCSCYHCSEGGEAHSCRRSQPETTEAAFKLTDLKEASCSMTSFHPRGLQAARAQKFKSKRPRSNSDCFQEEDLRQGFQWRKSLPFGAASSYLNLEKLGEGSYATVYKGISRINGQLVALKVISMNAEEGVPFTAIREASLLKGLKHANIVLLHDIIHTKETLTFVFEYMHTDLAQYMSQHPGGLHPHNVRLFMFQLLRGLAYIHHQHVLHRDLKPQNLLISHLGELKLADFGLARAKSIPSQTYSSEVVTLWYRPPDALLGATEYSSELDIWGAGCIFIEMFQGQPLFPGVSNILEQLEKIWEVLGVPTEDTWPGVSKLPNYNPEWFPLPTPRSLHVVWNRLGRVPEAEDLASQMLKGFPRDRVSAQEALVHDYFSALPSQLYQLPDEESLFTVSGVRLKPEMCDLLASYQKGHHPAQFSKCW
Chain of STK4 (human) (Q13043 whole entry, looked up): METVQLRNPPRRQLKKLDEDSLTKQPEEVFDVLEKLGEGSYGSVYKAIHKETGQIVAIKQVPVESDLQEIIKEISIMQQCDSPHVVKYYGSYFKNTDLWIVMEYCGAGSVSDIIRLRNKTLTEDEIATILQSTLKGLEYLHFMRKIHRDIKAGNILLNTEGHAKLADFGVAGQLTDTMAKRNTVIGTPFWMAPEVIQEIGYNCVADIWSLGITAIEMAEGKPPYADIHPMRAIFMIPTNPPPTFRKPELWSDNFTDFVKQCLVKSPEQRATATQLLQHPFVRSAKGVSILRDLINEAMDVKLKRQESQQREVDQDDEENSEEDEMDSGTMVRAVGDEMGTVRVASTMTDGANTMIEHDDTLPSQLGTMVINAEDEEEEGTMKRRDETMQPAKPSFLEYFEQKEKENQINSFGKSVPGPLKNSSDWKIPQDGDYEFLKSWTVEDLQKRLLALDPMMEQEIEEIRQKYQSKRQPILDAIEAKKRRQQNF
Chain of CAMKK2 (human) (Q96RR4 whole entry, looked up): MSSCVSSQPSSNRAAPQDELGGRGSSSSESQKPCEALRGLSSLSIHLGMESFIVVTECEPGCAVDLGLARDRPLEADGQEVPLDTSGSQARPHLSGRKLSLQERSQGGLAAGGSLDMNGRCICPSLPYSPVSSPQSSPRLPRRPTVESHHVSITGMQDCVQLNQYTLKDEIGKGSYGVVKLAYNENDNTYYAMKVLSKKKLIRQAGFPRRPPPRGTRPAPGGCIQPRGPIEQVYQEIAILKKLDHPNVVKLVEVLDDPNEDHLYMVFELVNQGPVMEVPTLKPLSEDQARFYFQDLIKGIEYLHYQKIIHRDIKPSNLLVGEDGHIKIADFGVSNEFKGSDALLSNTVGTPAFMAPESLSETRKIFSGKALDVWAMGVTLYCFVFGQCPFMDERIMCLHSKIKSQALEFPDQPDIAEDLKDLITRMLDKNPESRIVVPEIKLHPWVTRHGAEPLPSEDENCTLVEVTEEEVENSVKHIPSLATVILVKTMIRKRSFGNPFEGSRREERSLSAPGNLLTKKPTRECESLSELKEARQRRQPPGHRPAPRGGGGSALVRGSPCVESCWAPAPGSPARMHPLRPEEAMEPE
Chain of GSK3A (human) (P49840 whole entry, looked up): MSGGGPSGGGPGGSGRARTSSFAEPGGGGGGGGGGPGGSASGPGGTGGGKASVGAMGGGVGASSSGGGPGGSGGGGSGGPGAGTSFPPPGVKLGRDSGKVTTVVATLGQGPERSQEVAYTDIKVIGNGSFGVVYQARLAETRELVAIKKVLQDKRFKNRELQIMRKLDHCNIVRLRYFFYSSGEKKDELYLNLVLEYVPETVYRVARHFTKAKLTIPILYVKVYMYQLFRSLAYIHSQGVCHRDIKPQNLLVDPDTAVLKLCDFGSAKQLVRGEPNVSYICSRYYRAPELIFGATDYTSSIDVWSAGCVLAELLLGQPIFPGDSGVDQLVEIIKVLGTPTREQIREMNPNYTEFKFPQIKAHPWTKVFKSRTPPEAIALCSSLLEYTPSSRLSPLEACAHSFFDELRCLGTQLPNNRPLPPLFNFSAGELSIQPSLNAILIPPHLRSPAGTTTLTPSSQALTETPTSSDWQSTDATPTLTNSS
Chain of CLK2 (human) (P49760 whole entry, looked up): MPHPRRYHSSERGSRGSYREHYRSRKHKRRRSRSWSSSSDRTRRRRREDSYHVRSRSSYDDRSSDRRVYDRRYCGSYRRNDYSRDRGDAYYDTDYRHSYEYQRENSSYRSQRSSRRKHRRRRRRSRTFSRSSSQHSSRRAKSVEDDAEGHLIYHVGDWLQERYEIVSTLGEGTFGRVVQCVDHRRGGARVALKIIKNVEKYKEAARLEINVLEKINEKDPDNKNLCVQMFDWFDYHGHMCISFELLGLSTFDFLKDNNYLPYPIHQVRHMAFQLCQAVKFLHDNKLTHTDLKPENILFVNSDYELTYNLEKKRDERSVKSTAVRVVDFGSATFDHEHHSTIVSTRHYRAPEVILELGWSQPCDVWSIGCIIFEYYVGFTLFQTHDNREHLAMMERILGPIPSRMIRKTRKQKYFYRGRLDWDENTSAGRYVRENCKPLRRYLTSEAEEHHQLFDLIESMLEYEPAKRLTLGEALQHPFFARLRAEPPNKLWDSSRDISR
Chain of CDK19 (human) (Q9BWU1 whole entry, looked up): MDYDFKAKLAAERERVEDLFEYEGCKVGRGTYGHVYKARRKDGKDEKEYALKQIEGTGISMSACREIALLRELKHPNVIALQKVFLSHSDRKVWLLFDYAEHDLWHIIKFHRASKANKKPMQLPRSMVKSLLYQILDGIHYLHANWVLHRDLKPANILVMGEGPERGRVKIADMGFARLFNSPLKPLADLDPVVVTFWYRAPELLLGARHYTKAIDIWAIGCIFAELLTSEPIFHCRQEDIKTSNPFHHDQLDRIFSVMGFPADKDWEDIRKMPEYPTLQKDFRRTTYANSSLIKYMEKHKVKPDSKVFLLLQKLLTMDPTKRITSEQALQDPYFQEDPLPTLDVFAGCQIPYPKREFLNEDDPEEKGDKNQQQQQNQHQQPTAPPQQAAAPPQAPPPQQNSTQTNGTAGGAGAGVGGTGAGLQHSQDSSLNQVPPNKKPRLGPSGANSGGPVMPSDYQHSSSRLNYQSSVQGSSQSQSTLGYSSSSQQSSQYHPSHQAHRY

| Structure (SMILES) | kinase still bound, per cent of control (AAK1 (human)) [%] | kinase still bound, per cent of control (ACVR1 (human)) [%] | kinase still bound, per cent of control (AKT2 (human)) [%] | kinase still bound, per cent of control (AKT3 (human)) [%] | kinase still bound, per cent of control (AURKC (human)) [%] | kinase still bound, per cent of control (BMPR1B (human)) [%] | kinase still bound, per cent of control (CAMK2A (human)) [%] | kinase still bound, per cent of control (CAMKK2 (human)) [%] | kinase still bound, per cent of control (CDK15 (human)) [%] | kinase still bound, per cent of control (CDK19 (human)) [%] | kinase still bound, per cent of control (CLK2 (human)) [%] | kinase still bound, per cent of control (CSNK1G2 (human)) [%] | kinase still bound, per cent of control (EPHA6 (human)) [%] | kinase still bound, per cent of control (EPHB4 (human)) [%] | kinase still bound, per cent of control (FES (human)) [%] | kinase still bound, per cent of control (FGFR4 (human)) [%] | kinase still bound, per cent of control (GSK3A (human)) [%] | kinase still bound, per cent of control (IKBKB (human)) [%] | kinase still bound, per cent of control (LCK (human)) [%] | kinase still bound, per cent of control (MAP3K7 (human)) [%] | also measured |
| --- | --- | --- | --- | --- | --- | --- | --- | --- | --- | --- | --- | --- | --- | --- | --- | --- | --- | --- | --- | --- | --- |
| C=CC(=O)Nc1cccc(Nc2nc(N[C@H]3CC[C@H](N(C)C)CC3)nc3c2ncn3C(C)C)c1 | 45 | 100 | 84 | 91 | 69 | 31 | 34 | 25 | 100 | 100 | 0.5 | 7.9 | 73 | 60 | 85 | 98 | 100 | 76 | 38 | 21 | kinase still bound, per cent of control (MAP3K9 (human)): 17%; kinase still bound, per cent of control (MAPK10 (human)): 100%; kinase still bound, per cent of control (MERTK (human)): 16%; kinase still bound, per cent of control (MYLK4 (human)): 88%; kinase still bound, per cent of control (MYO3A (human)): 94%; kinase still bound, per cent of control (NEK2 (human)): 94%; kinase still bound, per cent of control (NLK (human)): 96%; kinase still bound, per cent of control (NUAK2 (human)): 45%; kinase still bound, per cent of control (PIM3 (human)): 75%; kinase still bound, per cent of control (PIP5K1A (human)): 36%; kinase still bound, per cent of control (PKMYT1 (human)): 93%; kinase still bound, per cent of control (PTK2 (human)): 26%; kinase still bound, per cent of control (RPS6KA2 KD1 (human)): 4.4%; kinase still bound, per cent of control (SIK1 (human)): 85%; kinase still bound, per cent of control (STK24 (human)): 43%; kinase still bound, per cent of control (STK32C (human)): 98%; kinase still bound, per cent of control (STK35 (human)): 80%; kinase still bound, per cent of control (STK4 (human)): 78%; kinase still bound, per cent of control (TAOK3 (human)): 28%; kinase still bound, per cent of control (TGFBR1 (human)): 100% |
| C=CC(=O)Nc1cccc(Oc2nc(Nc3ccc(N4CCN(C)CC4)cc3OC)ncc2Cl)c1 | 7 | 100 | 100 | 100 | 4.5 | 100 | 100 | 10 | 100 | 100 | 100 | 100 | 100 | 100 | 11 | 100 | 100 | 100 | 100 | 100 | kinase still bound, per cent of control (MAP3K9 (human)): 35%; kinase still bound, per cent of control (MAPK10 (human)): 13%; kinase still bound, per cent of control (MERTK (human)): 100%; kinase still bound, per cent of control (MYLK4 (human)): 24%; kinase still bound, per cent of control (MYO3A (human)): 28%; kinase still bound, per cent of control (NEK2 (human)): 100%; kinase still bound, per cent of control (NLK (human)): 100%; kinase still bound, per cent of control (NUAK2 (human)): 0.3%; kinase still bound, per cent of control (PIM3 (human)): 100%; kinase still bound, per cent of control (PIP5K1A (human)): 11%; kinase still bound, per cent of control (PKMYT1 (human)): 100%; kinase still bound, per cent of control (PTK2 (human)): 0.1%; kinase still bound, per cent of control (RPS6KA2 KD1 (human)): 16%; kinase still bound, per cent of control (SIK1 (human)): 100%; kinase still bound, per cent of control (STK24 (human)): 100%; kinase still bound, per cent of control (STK32C (human)): 100%; kinase still bound, per cent of control (STK35 (human)): 100%; kinase still bound, per cent of control (STK4 (human)): 100%; kinase still bound, per cent of control (TAOK3 (human)): 100%; kinase still bound, per cent of control (TGFBR1 (human)): 100% |
